Common to all, as to type: cell-based
The subject of one test is E. coli DH5α. In words: Antibacterial activity: MIC and growth curve against E. coli DH5α in 96-well plate. The following applies: minimal inhibitory concentration against E. coli DH5α; 96-well plate, 5×10^5 CFU/mL, 37° C., judged after 8 h. In outline:
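Log-phase bacteria (OD600 ~0.5) resuspended in LB at 5×10^5 CFU/mL, exposed to recombinant protein at 50, 25, 12.5 μg/mL final in triplicate, 37 °C shaking at 175 rpm. OD600 read every 30 min; MIC is lowest concentration showing no growth.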

Another test deals with E. coli BL21. In words: MIC against Gram-negative bacteria: E. coli BL21. The following applies: 5×10^5 CFU/mL. The method in brief: (§1)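 Two-fold serial dilutions of each purified human EGF domain protein, three replicate wells per level, were combined with bacteria at a final 5×10^5 CFU/mL in LB. Cultures were shaken at 175 rpm, 37° C. The MIC was taken as the minimum concentration preventing growth.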

The test system of the next test is Pseudomonas aeruginosa. In words: MIC against Gram-negative bacteria: Pseudomonas aeruginosa. The note with it: 5×10^5 CFU/mL. In outline: as §1
For a further test, the system named is Klebsiella pneumonia. In words: MIC against Gram-negative bacteria: Klebsiella pneumonia. The note with it: 5×10^5 CFU/mL. In outline: as §1
A further test deals with Enterobacter cloacae. In words: MIC against Gram-negative bacteria: Enterobacter cloacae. The note with it: 5×10^5 CFU/mL. In outline: as §1
The test system of the next test is Aeromonas hydrophila. In words: MIC against Gram-negative bacteria: Aeromonas hydrophila. The note with it: 5×10^5 CFU/mL. The method in brief:
as §1

In the next test the test system is Citrobacter diversus. The test is described as follows: MIC against Gram-negative bacteria: Citrobacter diversus. The following applies: 5×10^5 CFU/mL. In outline: as §1
In the next test the test system is Moraxella catarrhalis. In words: MIC against Gram-negative bacteria: Moraxella catarrhalis. The following applies: 5×10^5 CFU/mL. In outline:
as §1

In the next test the test system is Proteus mirabilis. The test is described as follows: MIC against Gram-negative bacteria: Proteus mirabilis. The following applies: 5×10^5 CFU/mL. In outline: as §1
The next test relates to Proteus vulgaris. In words: MIC against Gram-negative bacteria: Proteus vulgaris. The note with it: 5×10^5 CFU/mL. The method in brief:
as §1

The next test deals with Serratia marcescens. In words: MIC against Gram-negative bacteria: Serratia marcescens. The note with it: 5×10^5 CFU/mL. In outline: as §1
The mark [1] stands for this setting: 10 h cultivation at 37° C., two-fold serial dilution.

For orientation: MIC means the lowest concentration found to suppress growth. A lower MIC goes with inhibition by little substance. For the substance “PRT1127 (KDGPCVINGSPCQHGGTCVDDEGRASHASCLCPPGFSGNFCE; listed as Homo sapiens)”, the MIC with E. coli DH5α was 12.5 µg/mL. The “MIC E. coli BL21” value in the test on E. coli BL21 (setting [1]) was found to be 50 µg/mL. The “MIC P. aeruginosa” value with Pseudomonas aeruginosa (setting [1]) came out at 12.5 µg/mL. Besides, in the test with Klebsiella pneumonia (setting [1]), the “MIC K. pneumonia” value was 50 µg/mL. Besides, in the test with Enterobacter cloacae (setting [1]), the “MIC E. cloacae” value is 12.5 µg/mL. Further, the “MIC A. hydrophila” value against Aeromonas hydrophila (setting [1]) was 50 µg/mL. For the same substance, in the test with Citrobacter diversus (setting [1]), the “MIC C. diversus” value was found to be 25 µg/mL. Besides, the “MIC M. catarrhalis” value with Moraxella catarrhalis (setting [1]) came to 12.5 µg/mL. Also, the “MIC P. mirabilis” value in the test with Proteus mirabilis (setting [1]) stood at 25 µg/mL. Besides, in the test on Proteus vulgaris (setting [1]), the “MIC P. vulgaris” value worked out at 50 µg/mL. For the same substance, the “MIC S. marcescens” value against Serratia marcescens (setting [1]) was 25 µg/mL.

In turn, “PRT1101 (MKDPCFSNPCQGSATCVNTPGERSFLCKCPPGYSGTICE; listed as Homo sapiens)” yielded an MIC in the test with E. coli DH5α of 25 µg/mL. Besides, in the test with E. coli BL21 (setting [1]), the “MIC E. coli BL21” value came out at 50 µg/mL. Besides, in the test on Pseudomonas aeruginosa (setting [1]), the “MIC P. aeruginosa” value was found to be 25 µg/mL. Besides, the “MIC K. pneumonia” value with Klebsiella pneumonia (setting [1]) was found to be 12.5 µg/mL. For the same substance, the “MIC E. cloacae” value in the test on Enterobacter cloacae (setting [1]) is 25 µg/mL. Also, in the test with Aeromonas hydrophila (setting [1]), the “MIC A. hydrophila” value stood at 50 µg/mL. Moreover, the “MIC C. diversus” value against Citrobacter diversus (setting [1]) was determined as 12.5 µg/mL. In addition, in the test with Moraxella catarrhalis (setting [1]), the “MIC M. catarrhalis” value stood at 25 µg/mL. Moreover, the “MIC P. mirabilis” value in the test with Proteus mirabilis (setting [1]) was determined as 50 µg/mL. Further, in the test on Proteus vulgaris (setting [1]), the “MIC P. vulgaris” value is 25 µg/mL. Also, the “MIC S. marcescens” value against Serratia marcescens (setting [1]) stood at 12.5 µg/mL.

Take “PRT618 (CDCDPAGIAGPCDAGRCVCKPAVTGERCDRCRSGYYNLDGGNPEGCTQ; listed as Homo sapiens)”: the minimal inhibitory concentration (MIC) against E. coli DH5α amounted to 50 µg/mL. Further, the “MIC E. coli BL21” value in the test with E. coli BL21 (96-well plate, 37° C., 10 h) turned out to be 25 µg/mL. In addition, the “MIC P. aeruginosa” value in the test on Pseudomonas aeruginosa (96-well plate, 37° C., 10 h) was found to be 12.5 µg/mL. The “MIC K. pneumonia” value against Klebsiella pneumonia (96-well plate, 37° C., 10 h) was determined as 50 µg/mL. Besides, in the test on Enterobacter cloacae (96-well plate, 37° C., 10 h), the “MIC E. cloacae” value is 12.5 µg/mL. Also, the “MIC A. hydrophila” value in the test on Aeromonas hydrophila (96-well plate, 37° C., 10 h) was 50 µg/mL. Moreover, the “MIC C. diversus” value against Citrobacter diversus (96-well plate, 37° C., 10 h) is 12.5 µg/mL. For the same substance, the “MIC M. catarrhalis” value against Moraxella catarrhalis (96-well plate, 37° C., 10 h) was determined as 50 µg/mL. Moreover, the “MIC P. mirabilis” value with Proteus mirabilis (96-well plate, 37° C., 10 h) was found to be 12.5 µg/mL. Moreover, the “MIC P. vulgaris” value against Proteus vulgaris (96-well plate, 37° C., 10 h) is 50 µg/mL. In addition, the “MIC S. marcescens” value in the test on Serratia marcescens (96-well plate, 37° C., 10 h) turned out to be 25 µg/mL.

As to “PRT624 (CRCSPLGAASAQCHENGTCVCRPGFEGYKCDRCHDNFFLTADGTHCQQC; listed as Homo sapiens)”, in the test with E. coli DH5α, the MIC was determined as 25 µg/mL. In addition, in the test with E. coli BL21 (96-well plate, 37° C., 10 h), the “MIC E. coli BL21” value worked out at 100 µg/mL. Further, the “MIC P. aeruginosa” value with Pseudomonas aeruginosa (96-well plate, 37° C., 10 h) amounted to 25 µg/mL. Moreover, in the test on Klebsiella pneumonia (96-well plate, 37° C., 10 h), the “MIC K. pneumonia” value came to 50 µg/mL. In the test with Enterobacter cloacae (96-well plate, 37° C., 10 h), the “MIC E. cloacae” value stood at 25 µg/mL. Besides, the “MIC A. hydrophila” value against Aeromonas hydrophila (96-well plate, 37° C., 10 h) turned out to be 12.5 µg/mL. In addition, in the test on Citrobacter diversus (96-well plate, 37° C., 10 h), the “MIC C. diversus” value stood at 25 µg/mL. Moreover, the “MIC M. catarrhalis” value against Moraxella catarrhalis (96-well plate, 37° C., 10 h) turned out to be 12.5 µg/mL. In addition, in the test with Proteus mirabilis (96-well plate, 37° C., 10 h), the “MIC P. mirabilis” value came out at 25 µg/mL. In addition, in the test with Proteus vulgaris (96-well plate, 37° C., 10 h), the “MIC P. vulgaris” value was determined as 12.5 µg/mL. Also, in the test with Serratia marcescens (96-well plate, 37° C., 10 h), the “MIC S. marcescens” value was found to be 25 µg/mL.

In the test on E. coli DH5α, “PRT1433 (PPRRCDSNPCFRGVQCTDSRDGFQCGPCPEGYTGNGITCI; listed as Homo sapiens)” registered a minimal inhibitory concentration (MIC) of 12.5 µg/mL. Also, the “MIC against E. coli BL21” value in the test with E. coli BL21 (E. coli BL21, 10 h cultivation at 37° C.) came to 12.5 µg/mL. Besides, in the test with Pseudomonas aeruginosa (Pseudomonas aeruginosa, 10 h cultivation at 37° C.), the “MIC against P. aeruginosa” value was 12.5 µg/mL. Also, the “MIC against K. pneumonia” value in the test with Klebsiella pneumonia (Klebsiella pneumonia, 10 h cultivation at 37° C.) amounted to 12.5 µg/mL. Also, the “MIC against E. cloacae” value in the test with Enterobacter cloacae (Enterobacter cloacae, 10 h cultivation at 37° C.) was determined as 12.5 µg/mL. In the test with Aeromonas hydrophila (Aeromonas hydrophila, 10 h cultivation at 37° C.), the “MIC against A. hydrophila” value came out at 25 µg/mL. In addition, in the test with Citrobacter diversus (Citrobacter diversus, 10 h cultivation at 37° C.), the “MIC against C. diversus” value turned out to be 12.5 µg/mL. For the same substance, the “MIC against M. catarrhalis” value with Moraxella catarrhalis (Moraxella catarrhalis, 10 h cultivation at 37° C.) was 12.5 µg/mL. Besides, in the test with Proteus mirabilis (Proteus mirabilis, 10 h cultivation at 37° C.), the “MIC against P. mirabilis” value amounted to 25 µg/mL. The “MIC against P. vulgaris” value against Proteus vulgaris (Proteus vulgaris, 10 h cultivation at 37° C.) came out at 12.5 µg/mL. Also, in the test with Serratia marcescens (Serratia marcescens, 10 h cultivation at 37° C.), the “MIC against S. marcescens” value is 12.5 µg/mL.

For the origin of these results see patent US9833497B2, “Human originated EGF domain proteins and use of the same” (CHENGDU SOURCEBIO LIMITED-LIABILITY COMPANY, priority 2013, dated 2017).
